Laboratory results published in patent publication US20110054033A1, “METHODS OF USING ABSCISIC ACID FOR AMELIORATING HYPERTENSION AND VASCULAR INFLAMMATION” (Virginia Tech Intellectual Properties, Inc., priority 2009, published 2011).

Assays:
[1] = test system: monocyte chemoattractant protein 1 (MCP-1); test: Aortic gene expression by real-time RT-PCR: MCP-1; type: in vivo, mice; details: P=0.10
Protocol: (§1) FIG. 6 are graphs showing that ABA decreases immune cell infiltration in aortas of ApoE−/− mice and reduces pro-inflammatory gene expression. ApoE −/− mice were fed high fat diets created with or without 100 mg/kg diet racemic abscisic acid (ABA). (A) Infiltration of F4/80^+CD11b^+ macrophages and CD4^+ T-cells into the aorta were assessed with flow cytometry. Gene expression in the aorta of pro-inflammatory markers (B) vascular cell adhesion molecule 1 (VCAM-1), (C) monocyte chemoattractant protein 1 (MCP-1), (D) E-selectin, (F) peroxisome proliferator-activated receptor γ (PPAR γ), and (G) CD36 were measured as a ratio to the housekeeping gene β-actin. (H) MCP-1 protein concentrations (pg/mL) were measured by ELISA. Data were analyzed as a completely randomized design.
(§2) Total RNA was isolated from aortas using the RNA isolation Minikit (Qiagen) according to the manufacturer's instructions. […] Each gene amplicon was purified with the MiniElute PCR Purification Kit (Qiagen) and quantitated on an agarose gel by using a DNA mass ladder (Promega). […]
(§3) Complementary DNA (cDNA) concentrations for genes of interest were examined by real-time quantitative PCR using an iCycler IQ System and the iQ SYBR green supermix (Bio-Rad). […] Results are presented as a starting quantity of target cDNA (picograms) per microgram of total RNA. […]

ApoE-deficient mice = test: Blood pressure by non-invasive tail-cuff system; type: in vivo; details: for Systolic blood pressure vs control-fed mice: P<0.05
Protocol: FIG. 3 is a graph showing that ABA decreases systolic blood pressure in ApoE (−/−) mice. ApoE −/− mice were fed high fat diets created with (solid line) or without (dashed line) 100 mg/kg diet racemic abscisic acid (ABA). Systolic blood pressure was assessed on days 0, 28, 56, and 72 of dietary treatment. Data were analyzed as a completely randomized design.
Five-week old ApoE −/− mice (n=40) were housed at the animal facilities at Virginia Polytechnic Institute and State University in a room maintained at 75° F., with a 12:12 h light-dark cycle starting from 6:00 AM. All experimental procedures were approved by the Institutional Animal Care and Use Committee of Virginia Polytechnic Institute and State University and met or exceeded requirements of the Public Health Service/National Institutes of Health and the Animal Welfare Act. Mice were fed a high saturated fat (AIN-93G-based) diet containing 19.6% fat and 0.2% total cholesterol and obtaining 40.1% of Kcal from fat (4.4 Kcal/g) with or without 100 mg/kg of a racemic ABA mixture (Guri et al., J. Nutr. Biochem. 19:216-28, 2008). Systolic blood pressure was assessed on days 0, 28, 56, and 72. On day 84, fasted mice (12 h) were sacrificed by carbon dioxide asphyxiation and blood was withdrawn through cardiac puncture. Glucose concentrations of whole blood were assessed with an Accu-Chek® Glucometer (Roche, Indianapolis, Ind.) and plasma insulin was measured through insulin ELISA (Millipore, Billerica, Mass.). Aortas were collected for analysis of immune cell infiltration, histological evaluation of atherosclerotic lesions, and gene expression analyses.
Systolic blood pressure was measured with a computerized non-invasive tail-cuff system (CODA 2 mouse rat blood pressure system; Kent Scientific Corporation, Torrington, Conn.). Conscious animals were kept in a restrainer, with a standard acclimatization time of 10 min and gentle heating of the tail before every recording session. Fifteen recordings, which were preceded by five acclimitization recordings, were performed on each animal during each timepoint.

[2] = FPLC separation of plasma lipoproteins; type: in vivo; details: ApoE-deficient mice, FIG. 2
Protocol: FIG. 2 is a graph showing fast performance liquid chromatography (FPLC) separation of plasma lipoproteins performed on a Superose 6 column using buffer containing 0.15M NaCl, 0.01M Na2HPO4 and 1 mM EDTA at a flow rate of 0.5 ml/min. Forty 0.5 ml fractions were collected and cholesterol was measured in fractions 10-40. Fractions 15-20 contain VLDL, fractions 21-27 contain LDL and fractions 28-34 contain HDL.
Plasma cholesterol and triglyceride levels were measured using kits from Raichem (San Diego, Calif.) adapted for microtiter plate assays. Plasma free fatty acids were measured using the NEFA-HR(2) kit from Wako. Fast performance liquid chromatography (FPLC) separation of plasma lipoproteins was performed on a Superose 6 column using buffer containing 0.15M NaCl, 0.01M Na2HPO4 and 1 mM EDTA at a flow rate of 0.5 ml/min. Forty 0.5 ml fractions were collected and cholesterol was measured in fractions 10-40. Fractions 15-20 contain VLDL, fractions 21-27 contain LDL and fractions 28-34 contain HDL.

E-selectin = test: Aortic gene expression by real-time RT-PCR: E-selectin; type: in vivo, mice; details: P=0.20
Protocol: as §1, §2, §3

eNOS = eNOS mRNA expression in HAECs by real time PCR; type: cell-based, human; details: 10 μM ABA, 24 hours, P<0.02
[3] = ABA 100 mg/kg diet, data not shown

Question: Which results are given for `CC1=CC(=O)CC(C)(C)C1(O)/C=C/C(C)=C\C(=O)O` (racemic) [ABA, abscisic acid]?
Answer: MCP-1 mRNA expression in the aortic roots vs control [1]: reduced, though not to statistical significance; Diastolic blood pressure vs control-fed mice (ApoE-deficient mice; [3]): no significant affect; Mean heart rate vs control-fed mice (ApoE-deficient mice; [3]): no significant affect; Systolic blood pressure vs control-fed mice (ApoE-deficient mice; day 56, ABA 100 mg/kg diet): significantly reduced; Systolic blood pressure vs control-fed mice (ApoE-deficient mice; day 72, ABA 100 mg/kg diet): significantly reduced; FPLC lipoprotein cholesterol profile vs control diet [2]: slight shift in the profiles to lower VLDL and higher LDL and HDL; E-selectin mRNA expression in the aortic roots vs control (E-selectin): reduced, though not to statistical significance; eNOS mRNA levels vs vehicle (eNOS): significantly (P<0.02) increased
